51 compounds from publication PMC9021288 (Nature Communications, 2022) can be followed below.

Each structure is given as a SMILES string. Read-outs that look alike come from different tables or passages of the source.

In data set [1] the test system is P. falciparum NF54 asexual blood-stage parasites. The experiment in a line: 72-h asexual blood-stage replication assay (SYBR Green). It counts as cell-based, Plasmodium falciparum. To be noted: asexual blood stages NF54 parasites; read-out: IC50. On the procedure: Replication assays were performed using a SYBR Green method as described previously. Briefly, asynchronous parasites were diluted to 0.83% parasitemia, 3% hematocrit in 30 µl medium, and added to 30 µl of diluted compounds in medium (0.1% DMSO final concentration) in black 384-wells plates. After a 72-h incubation, 30 µl of SYBR Green diluted in lysis buffer was added according to the manufacturer’s protocol (Life Technologies). Fluorescence intensity was measured on a BioTek Synergy 2 Plate Reader after 1-h incubation and was normalized to a DMSO control (100% growth) and DHA- or epoxomicin-treatment (no growth). […] Parasite survival was assessed by flow cytometry on an Accuri C6 (BD Biosciences) with BD C6 Plus software using SYBR Green and MitoTracker Deep Red FM (Life Technologies) as nuclear stain and vital dye, respectively, and data were analyzed using FlowJo (10.5.0). […] Luminescence was measured after 72 h using the Renilla-Glo(R) Luciferase Assay System (Promega E2750) and the GlomAX® Discover Multimode Microplate Reader (Promega). The luminescence values were normalized to DMSO vehicle (100% growth) and 200 nM chloroquine-treated (no growth) samples as controls.
Dose-response assays were analyzed by a nonlinear regression using a four-parameter model and the least squares method to find the best fit. One-way Analysis of variance (ANOVA) was performed using the Bonferroni’s Multiple Comparison Test. For the majority of experiments, 2-4 biological replicates were performed. Typically, 2 replicates were performed for screening activities, and a minimum of 3 replicates are performed for other experiments unless stated otherwise.

Data set [2] relates to TA98, TA100, TA102, TA1535, TA1537. To be noted: positive control. On the procedure: Safety studies were performed by commercial services using their standard protocols. […] Genotoxicity was investigated using the Ames test (Bacterial Reverse Mutation Assay) (Covance Laboratories Ltd, North Yorkshire, England). In vitro mammalian cell micronucleus screening assay was studied in human peripheral blood lymphocytes (BioReliance Corporation, Rockville, USA). Cardiotoxicity was determined against the hERG channel in an automated patch clamp assay using the Qpatch or against the hNaV 1.5, hKV 1.5 and hCaV 1.2 using a manual patch-clamp technique (Metrion Biosciences, Cambridge, UK). Cytotoxicity in human and rat primary hepatocytes was assessed using the CellTiter-Blue assay performed by commercial services (KaLy-Cell). The viability of HepG2 cells was monitored through the addition of 1 mM resazurin. Following 6 h incubation, the relative amount of reduced resazurin was detected in a fluorimeter and compared to the assay controls (vehicle: 0.1% DMSO and positive control: 10 µM puromycin).

By IC50 is commonly meant the concentration that inhibits the measured activity by half.

Take `CC(CNC(=O)C(C)(O)C(C)(C)CO)NC(=O)CCc1ccccc1F` (mixture of isomers) [MMV1545785]: the IC50 in data set [1] came out at 1000 nM. For `Nc1c2ccccc2nc2ccccc12` [AAC], in data set [2] (TA1537, -S-9, 50 ug/plate), the “Fold Increase” value amounted to 54.9 and the “Mean (Revertant Numbers Per Plate)” value came out at 384.3. Consider `Nc1ccc2cc3ccccc3cc2c1` [AAN], for which the “Fold Increase” value in data set [2] (TA100, +S-9, 5 ug/plate) is reported as 21.6; in data set [2] (TA102, +S-9, 20 ug/plate) it was 11; in data set [2] (TA1535, +S-9, 5 ug/plate), 7.5; in data set [2] (TA1537, +S-9, 5 ug/plate), 39.7. Besides, the “Mean (Revertant Numbers Per Plate)” value in data set [2] (TA100, +S-9, 5 ug/plate) amounted to 2606; in data set [2] (TA102, +S-9, 20 ug/plate), 2462; in data set [2] (TA1535, +S-9, 5 ug/plate), 173.3; in data set [2] (TA1537, +S-9, 5 ug/plate), 277.7. Turning to `O=[N+]([O-])c1ccc2c(c1)Cc1ccccc1-2` [Compound 2NF], in data set [2] (TA98, -S-9, 5 ug/plate), the “Fold Increase” value is given as 49.1 and the “Mean (Revertant Numbers Per Plate)” value amounted to 1375.7. Turning to `CO[C@@]12[C@H](COC(N)=O)C3=C(C(=O)C(C)=C(N)C3=O)N1C[C@@H]1N[C@@H]12` [MMC], the “Fold Increase” value in data set [2] (TA102, -S-9, 0.2 ug/plate) turned out to be 3.3. Consider `C[C@@H](CNC(=O)[C@H](O)C(C)(C)CO)NC(=O)c1ccccc1F` [MMV154200], for which the IC50 in data set [1] worked out at 41 nM. For the compound `C[C@H](CNC(=O)[C@H](O)C(C)(C)CO)NC(=O)CCc1ccccc1F` [MMV689260], the IC50 in data set [1] turned out to be 210 nM. As for `CC(C)(CNC(=O)CCc1ccccc1F)NC(=O)[C@H](O)C(C)(C)CO` [MMV689261], in data set [1], the IC50 is above 10000 nM. Turning to `CC(C)(CNC(=O)[C@H](O)C(C)(C)CO)NC(=O)CCc1ccccc1F` [MMV689455], the IC50 in data set [1] came to 1190 nM. Still for that read-out and setting: the result for `C[C@@H](CNC(=O)[C@H](O)C(C)(C)CO)NC(=O)c1cc(Cl)c(F)cc1F` [MMV692009] reads 2.3 nM. Regarding `CC[C@@H](CNC(=O)[C@H](O)C(C)(C)CO)NC(=O)CCc1ccccc1F` [MMV692676], the IC50 in data set [1] came out at 122 nM. Still for that read-out and setting: as for `C[C@@H](CNC(=O)[C@H](O)C(C)(C)CO)NS(=O)(=O)CCc1ccccc1` [MMV692748], the figure is above 10000 nM; as for `C[C@@H](CNC(=O)[C@H](O)C(C)(C)CO)NC(=O)c1c(F)cccc1F` [MMV693185], 478 nM. On to `C[C@@H](CNC(=O)[C@@H](O)C(C)(C)CO)NC(=O)CCc1ccccc1F` [MMV884787], for which the IC50 in data set [1] turned out to be 235 nM. The same measure, in the same setting: the result for `C[C@@H](CNC(=O)[C@H](O)C(C)(C)CO)c1nnc(CCc2ccccc2F)[nH]1` [MMV884788] reads 554 nM; that for `C[C@@H](CNC(=O)[C@H](O)C(C)(C)CO)NC(=O)c1ccc(C#N)cc1` [MMV884961], 535 nM. With `CCC(CC)(CO)[C@@H](O)C(=O)NC[C@H](C)NC(=O)CCc1ccccc1F` [MMV884964], the IC50 in data set [1] was above 1000 nM. As for `C[C@H](CNC(=O)[C@@H](O)C(C)(C)CO)NC(=O)CCc1ccccc1F` [MMV884968], the IC50 in data set [1] was above 1000 nM. For the compound `C[C@@H](CNC(=O)[C@H](O)C(C)(C)CO)NC(=O)c1cccc(S(C)(=O)=O)c1` [MMV884969], the IC50 in data set [1] was above 10000 nM. Still for that read-out and setting: as for `C[C@@H](CNC(=O)[C@H](O)C(C)(C)CO)NC(=O)c1cccc(N(C)C)c1` [MMV884970], the figure is above 10000 nM.

With `C[C@@H](CNC(=O)[C@H](O)C(C)(C)CO)NC(=O)c1ccc(C(F)(F)F)cc1` [MMV892612], in data set [1], the half-inhibitory concentration (IC50) was found to be 132 nM. On the same count and under the same terms, the result for `C[C@@H](CNC(=O)[C@H](O)C(C)(C)CO)NC(=O)c1ccccc1C(F)(F)F` [MMV892613] reads above 10000 nM.

For the compound `C[C@@H](CNC(=O)[C@H](O)C(C)(C)CO)NC(=O)c1cccc(C(F)(F)F)c1` [MMV892614], in data set [1], the IC50 is 143 nM. Regarding `C[C@@H](CNC(=O)[C@H](O)C(C)(C)CO)NC(=O)c1ccccc1Cl` [MMV892807], the IC50 in data set [1] was above 10000 nM. On the same count and under the same terms, the result for `C[C@@H](CNC(=O)[C@H](O)C(C)(C)CO)NC(=O)c1cccc(Cl)c1` [MMV892808] reads 2.3 nM; that for `C[C@@H](CNC(=O)[C@H](O)C(C)(C)CO)NC(=O)c1ccc(Cl)cc1` [MMV892809], 103 nM. `COc1ccc(C(=O)N[C@@H](C)CNC(=O)[C@H](O)C(C)(C)CO)cc1` [MMV892810]: the IC50 in data set [1] came to 344 nM. Same read-out and setting: as for `COc1cccc(C(=O)N[C@@H](C)CNC(=O)[C@H](O)C(C)(C)CO)c1` [MMV892811], the figure is 32 nM; as for `COc1ccccc1C(=O)N[C@@H](C)CNC(=O)[C@H](O)C(C)(C)CO` [MMV892812], above 10000 nM. On the same count and under the same terms, as for `C[C@@H](CNC(=O)[C@H](O)C(C)(C)CO)NC(=O)c1cccc(F)n1` [MMV892814], the figure is above 10000 nM; as for `Cc1cc(C(=O)N[C@@H](C)CNC(=O)[C@H](O)C(C)(C)CO)c(F)cc1F` [MMV893115], 66 nM; as for `C[C@@H](CNC(=O)[C@H](O)C(C)(C)CO)NC(=O)c1cc2ccccc2[nH]1` [MMV893121], 53 nM.

As for `C[C@@H](CNC(=O)[C@H](O)C(C)(C)CO)NC(=O)c1cc2ccccc2o1` [MMV893335], in data set [1], the IC50 is 12.5 nM.

As to `C[C@@H](CNC(=O)[C@H](O)C(C)(C)CO)NC(=O)c1cc2ccccc2s1` [MMV893336], the concentration for half-maximal inhibition (IC50) in data set [1] worked out at 19.9 nM. Regarding `C[C@@H](CNC(=O)[C@H](O)C(C)(C)CO)NC(=O)c1coc2ccccc12` [MMV893337], in data set [1], the IC50 was determined as 3.9 nM. In the case of `C[C@@H](CNC(=O)[C@H](O)C(C)(C)CO)NC(=O)c1csc2ccccc12` [MMV893338], the IC50 in data set [1] is 195 nM. On the same count and under the same terms, the result for `C[C@@H](CNC(=O)[C@H](O)C(C)(C)CO)NC(=O)c1ccoc1` [MMV893339] reads 42 nM; that for `C[C@@H](CNC(=O)[C@H](O)C(C)(C)CO)NC(=O)c1ccsc1` [MMV893340], 14.6 nM. Still for that read-out and setting: the result for `C[C@@H](CNC(=O)[C@H](O)C(C)(C)CO)NC(=O)c1cccs1` [MMV893344] reads 18.2 nM. Turning to `C[C@@H](CNC(=O)[C@H](O)C(C)(C)CO)NC(=O)c1ccc[nH]1` [MMV893345], the IC50 in data set [1] was above 10000 nM.

With `C[C@@H](CNC(=O)[C@H](O)C(C)(C)CO)NC(=O)c1c[nH]c2ccccc12` [MMV893375], in data set [1], the IC50 turned out to be 41 nM. With `C[C@@H](CNC(=O)[C@H](O)C(C)(C)CO)NC(=O)c1cc[nH]c1` [MMV893376], the IC50 in data set [1] worked out at 1800 nM. Same read-out and setting: as for `C[C@@H](CNC(=O)[C@H](O)C(C)(C)CO)NC(=O)c1cc(Cl)c(Cl)cc1F` [MMV893655], the figure is 19.7 nM; as for `C[C@@H](CNC(=O)[C@H](O)C(C)(C)CO)NC(=O)c1ccc(F)c(Cl)c1` [MMV977407], 3.4 nM; as for `C[C@@H](CNC(=O)[C@H](O)C(C)(C)CO)NC(=O)c1ccc(F)c(C#N)c1` [MMV977409], 84 nM. Consider `C[C@@H](CNC(=O)[C@H](O)C(C)(C)CO)NC(=O)c1cccc(C#N)c1F` [MMV977410], for which the IC50 in data set [1] came to 19 nM. Still for that read-out and setting: the result for `C[C@@H](CNC(=O)[C@H](O)C(C)(C)CO)NC(=O)c1cccc(Cl)c1F` [MMV977411] reads 12 nM. On the same count and under the same terms, the result for `C[C@@H](CNC(=O)[C@H](O)C(C)(C)CO)NC(=O)c1ccc(F)cc1` [MMV1542002] reads 82 nM; that for `Cc1ccccc1C(=O)N[C@@H](C)CNC(=O)[C@H](O)C(C)(C)CO` [MMV1542005], above 10000 nM. For `Cc1cccc(C(=O)N[C@@H](C)CNC(=O)[C@H](O)C(C)(C)CO)c1` [MMV1542099], in data set [1], the IC50 worked out at 22 nM. For the compound `[N-]=[N+]=[N-].[Na+]` [NaN3], the “Fold Increase” value in data set [2] (TA100, -S-9, 2 ug/plate) worked out at 9.7; in data set [2] (TA1535, -S-9, 2 ug/plate) it was 26.6. Moreover, the “Mean (Revertant Numbers Per Plate)” value in data set [2] (TA100, -S-9, 2 ug/plate) is given as 845; in data set [2] (TA1535, -S-9, 2 ug/plate) it was 672.7.
